Data reported in US20230049350A1, “COMPOUNDS FOR TREATING BRAIN CANCER” (Purdue Pharmaceutical Products L.P., priority 2014, published 2023).
pIC50: −log10 of the molar value. Where two headings read alike, the source gives them in different places.

Tests used:
LN18 = assay: GBM cell line viability IC50, LN18; type: cell-based; conditions: Homo sapiens, LN-18
Method: (§1) In vitro experiments were devised in which a series of GBM cell lines representative for MGMT negative and MGMT positive tumour cells were used.
(§2) Compounds: 1-100 µM EDO-S101, 1-50 µM temozolomide (TMZ), 1-50 µM temozolomide + 500 nM vorinostat, 1-40 µM bendamustine, 1-40 µM bendamustine and 500 nM vorinostat.
(§3) Twelve glioblastoma cell lines representing grade III and IV gliomas and with different expression of MGMT, drug and radiotherapy sensitivity and five patient derived glioblastoma stem, cells were used (see above). Four patient-derived glioblastoma stem cells, kindly provided from J. Gregory Cairncross, and Samuel Weiss at the Hotchkiss Brain Institute, Faculty of Medicine, University of Calgary, Calgary, Alberta, Canada and one luciferase transfected, PTC#8, from Prof Angelo Vescovi, University la Bicocca, Milan were cultured in defined culture serum free medium (SFM) and in non-adherent spheres culture. Cells were resuspended in DMEM/F12 media without serum supplemented with 20 ng/ml epidermal growth factor (Sigma-Aldrich), 20 ng/ml basic fibroblast growth factor (Sigma-Aldrich), B-27 supplement 1X (Gibco, Life Technologies), and antibiotics. Treatment with EDO-S101 was added straight after plating 3×10^3 cells in 96-well plates with the stem cells media. Spheres were counted 5 days after treatment under an inverted microscope at ×4 magnification. A sphere was counted if it had at least 15 cells.
(§4) Cells were seeded at a density of 2 × 10^4 cells/ml in 24 well plates. Cells were left to attach and grow in 5% FCS DMEM for 24 h. […] Cells trypsinized and resuspended in 1.0 ml of saline were counted using the NucleoCounterTM NC-100 (automated cell counter systems, Chemotec, Cydevang, DK) in order to evaluate cell viability. […] IC50 values were calculated by the GraFit method (Erithacus Software Limited, Staines, UK). Cell viability was measured with the 3-(4,5 dimethylthiazol-2-yl)-2,5-diphenyl tetrazolium bromide (MTT; Sigma-Aldrich) assay.
(§5) IC50 and IC20 values for all twelve cell lines against bendamustine and vorinostat were also determined as described above. […]

LN228 = assay: GBM cell line viability IC50, LN228/LN229; type: cell-based; conditions: Homo sapiens, LN-229
Method: as §1, §2, §3, §4, §5

U138MG = assay: GBM cell line viability IC50, U138; type: cell-based; conditions: Homo sapiens, U138-MG
Method: as §1, §2, §3, §4, §5

U87MG = assay: GBM cell line viability IC50, U87; type: cell-based; conditions: Homo sapiens, U-87 MG
Method: as §1, §2, §3, §4, §5

SNB19 = assay: GBM cell line viability IC50, SNB19; type: cell-based; conditions: Homo sapiens, SNB-19
Method: as §1, §2, §3, §4, §5

SW1783 = assay: GBM cell line viability IC50, SW1783; type: cell-based; conditions: Homo sapiens
Method: as §1, §2, §3, §4, §5

U118MG = assay: GBM cell line viability IC50, U118; type: cell-based; conditions: Homo sapiens, U-118-MG
Method: as §1, §2, §3, §4, §5

OCI-LY10B lymphoma cells = assay: Murine model for primary CNS lymphoma, intracerebral OCI-LY10B; type: in vivo, mice; conditions: for tumour growth: iv days +4, +11, +18; for median survival: iv days +4, +11, +18, EDO-S101 60 mg/kg, bendamustine 50 mg/kg, controls 48 days
Method: The procedure of Example 3 was repeated, except the murine models were created with 1×10^5 luciferase-transfected OCI-LY10B lymphoma cells to create a model of primary CNS lymphoma. EDO-S101 (60 mg/kg body weight), bendamustine (50 mg/kg body weight) and control was administered intravenously via a tail vein to separate groups of the test mice on days +4, +11 and +18 post intracerebral implantation of the OCI-LY10B lymphoma cells. […] EDO-S101 therefore appears to be a promising treatment for primary CNS lymphoma.

U373MG (Uppsala) = assay: GBM cell line viability IC50, U373; type: cell-based; conditions: Homo sapiens, U373 MG
Method: as §1, §2, §3, §4, §5

A172 = assay: GBM cell line viability IC50, A172; type: cell-based; conditions: Homo sapiens, A 172
Method: as §1, §2, §3, §4, §5

Mz-54 = assay: GBM cell line viability IC50, Mz54; type: cell-based
Method: as §1, §2, §3, §4, §5

U251MG = assay: GBM cell line viability IC50, U251; type: cell-based; conditions: Homo sapiens, U-251
Method: as §1, §2
Twelve glioblastoma cell lines representing grade III and IV gliomas and with different expression of MGMT, drug and radiotherapy sensitivity and five patient derived glioblastoma stem, cells were used (see above). […] Spheres were counted 5 days after treatment under an inverted microscope at ×4 magnification. A sphere was counted if it had at least 15 cells.
as §4, with “plates.” for “plates. Cells were left to attach and grow in 5% FCS DMEM for 24 h.”
as §5

T98G = assay: GBM cell line viability IC50, T98G; type: cell-based; conditions: for pIC50: Homo sapiens
Method: as §1, §2, §3, §4, §5

SMILES	pIC50 (LN18)	pIC50 (LN228)	pIC50 (U138MG)	pIC50 (U87MG)	pIC50 (SNB19)	pIC50 (SW1783; SW1783)	pIC50 (U118MG)	tumour growth (OCI-LY10B lymphoma cells)	median survival (OCI-LY10B lymphoma cells) [days]	pIC50 (U373MG (Uppsala))	pIC50 (A172)	pIC50 (Mz-54)	other results
Cn1c(CCCCCCC(=O)NO)nc2cc(N(CCCl)CCCl)ccc21 [EDO-S101]	5.73	5.81	5.37	5.87	5.66	5.08	5.18	significantly suppressed tumour growth	62	5.65	5.19	4.90	–
Cn1c(CCCC(=O)O)nc2cc(N(CCCl)CCCl)ccc21 [bendamustine]	4.60	4.46	4.52	4.30	4.49	4.42	4.46	significantly suppressed tumour growth	54	4.46	4.26	4.22	pIC50 (U251MG): 4.52; pIC50 (T98G; T98G): 4.28
Cn1nnc2c(C(N)=O)ncn2c1=O [temozolomide]	–	–	–	–	–	–	–	–	–	–	–	–	pIC50 (LN18; LN18, MGMT pos., no unit in Table 2, read-out: IC50): < 4.00; pIC50 (LN228; LN228, MGMT neg., no unit in Table 2, read-out: IC50): < 4.00; pIC50 (U251MG; MGMT negative U251MG glioblastoma cell line, read-out: IC50): 4.70; pIC50 (U138MG; U138MG, MGMT pos., no unit in Table 2, read-out: IC50): < 4.00; pIC50 (U87MG; MGMT negative U87G glioblastoma cell line, read-out: IC50): 4.70; pIC50 (SNB19; SNB19, MGMT neg., no unit in Table 2, read-out: IC50): < 4.00; pIC50 (SW1783; SW1783, MGMT neg., no unit in Table 2, read-out: IC50): 4.10; pIC50 (U118MG; U118MG, MGMT pos., no unit in Table 2, read-out: IC50): < 4.00; pIC50 (U373MG (Uppsala); U373MG (Uppsala), MGMT neg., no unit in Table 2, read-out: IC50): 4.10; pIC50 (A172; A172, MGMT neg., no unit in Table 2, read-out: IC50): ~4.00; pIC50 (T98G; MGMT positive T98G glioblastoma cell line, read-out: IC50): < 4.00; IC50 (T98G; T98G, MGMT pos., no unit in Table 2 (µM), read-out: IC50): > 100 µM; pIC50 (Mz-54; Mz-54, MGMT pos., no unit in Table 2, read-out: IC50): < 4.00
